Reference: PMC9172283 (Antiviral Research, 2022)

Key:
HCoV-229E = assay: microbe, parasite or virus in culture; assay type: cell-based; conditions: for EC50: Human coronavirus 229E, MRC5, 144 h, read-out: HCoV-229E EC50
[1] = MTT cell viability assay in Vero E6 cells; assay type: cell-based; conditions: African green monkey
[2] = MTT cell viability assay in MRC-5 cells; assay type: cell-based; conditions: human
HCoV-OC43 = assay: Plaque reduction assay against HCoV-OC43 in MRC-5 cells; assay type: cell-based; conditions: infected MRC-5 cells
SARS-CoV-2 M^pro = SARS-CoV-2 M^pro (Severe acute respiratory syndrome coronavirus 2, UniProt P0DTD1); assay: FRET-based SARS-CoV-2 M^pro activity assay in vitro; assay type: biochemical; conditions: for Inhibitory effect on M^pro catalytic activity at fixed concentration: 100 μM, cut-off 50% of inhibition; for Fold increase of inhibitory potency against M^pro compared to parental hit 7: compared to hit 7
SARS-CoV-2 [3] = assay: Virus yield reduction assay of SARS-CoV-2 in Calu-3 cells; assay type: cell-based; conditions: MOI 0.01, 36 h p.i., titration on Vero E6
SARS-CoV-2 [4] = assay: Plaque reduction assay; assay type: cell-based, SARS-CoV-2/NL/2020 strain; conditions: ratio between CC50 and EC50; SARS-CoV-2, Vero E6 cells
[5] = test system: SARS-CoV-2 M^pro (NanoLuc-nsp4-M^pro fusion protein); assay type: cell-based
SARS-CoV-2 [6] = assay: Time-of-addition experiments with SARS-CoV-2 in Vero E6 cells; assay type: cell-based; conditions: 50 μM, added at +4 h p.i.

Row | SMILES | EC50 (HCoV-229E) [µM] | CC50 at 72 h [1] [µM] | CC50 at 72 h [2] [µM] | Activity towards HCoV-229E (HCoV-229E) | Activity towards HCoV-OC43 (HCoV-OC43) | IC50 (SARS-CoV-2 M^pro) [µM] | Inhibitory effect on M^pro catalytic activity at fixed concentration (SARS-CoV-2 M^pro) | SARS-CoV-2 titers in supernatants of infected and treated Calu-3 cells (SARS-CoV-2 [3]) | SI, Selectivity Index (SARS-CoV-2 [4]) | Inhibition of proteolytic cleavage of NanoLuc-nsp4-M^pro in cells [5] | Fold increase of inhibitory potency against M^pro compared to parental hit 7 (SARS-CoV-2 M^pro) [fold] | Time-of-addition: effect of addition at 4 h p.i. (SARS-CoV-2 [6])
1 | CCC(CC)COC(=O)[C@H](C)N[P@](=O)(OC[C@H]1O[C@@](C#N)(c2ccc3c(N)ncnn23)[C@H](O)[C@@H]1O)Oc1ccccc1 [RMV, remdesivir, reference compound] | 0.09 ± 0.03 | > 250 |  |  |  |  |  |  |  |  |  | 
2 | CCC(C)C(NC(=O)C1N2C(=O)c3ccccc3C2SC1(C)C)C(=O)NC(CO)C(C)C (stereo not drawn) [Compound 6] | 22.9 ± 4.9 | > 500 | > 500 | retained activity | retained activity | > 100 | not a significant inhibitory effect | significantly reduced SARS-CoV-2 titers |  |  |  | 
3 | COc1ccc(C(=O)Nc2ccccc2C(=O)N[C@H](C(=O)NC2CCCCC2)C(C)C)cc1 [Compound 33, (S)-N-(1-(Cyclohexylamino)-3-methyl-1-oxobutan-2-yl)-2-(4-methoxybenzamido)benzamide] |  | > 250 |  |  |  | 26.7 ± 7.3 |  |  | >7 |  |  | 
4 | CC(C)(C)NC(=O)N[C@H](C(=O)N1C[C@H]2[C@@H]([C@H]1C(=O)NC(CC1CCC1)C(=O)C(N)=O)C2(C)C)C(C)(C)C (stereo partly drawn) [BOC, Boceprevir, reference compound] |  | > 500 |  |  |  |  |  |  |  | not detected |  | 
5 | Cc1ccc(-c2cc(C(F)(F)F)n3ncc(C(=O)Nc4sc5c(c4C(N)=O)CCCC5)c3n2)cc1 [Compound 27] |  | 67.9 ± 16.5 |  |  |  | 46.2 ± 7.7 | exerted an inhibitory effect |  | 5 |  |  | 
6 | COc1ccc(C(=O)Nc2ccccc2C(=O)N[C@H](C(=O)N[C@H](CO)C(C)C)C(C)C)cc1 [Compound 32, N-((S)-1-(((S)-1-Hydroxy-3-methylbutan-2-yl)amino)-3-methyl-1-oxobutan-2-yl)-2-(4-methoxybenzamido)benzamide] |  | > 250 |  |  |  | > 200 |  |  | >8 |  |  | 
7 | CCC(C)NC(=O)c1ccccc1NC(=O)c1cccc(S(=O)(=O)Nc2ccccc2)c1 (stereo not drawn) [Compound 29] | 15.7 ± 4.8 | > 500 | > 250 | retained activity | retained activity |  | not a significant inhibitory effect |  |  |  |  | 
8 | CCOc1ccccc1NC(=O)C(=O)NCC(c1cccnc1)N1CCN(c2ccccc2)CC1 (stereo not drawn) [Compound 3] | 34.6 ± 8.5 | > 500 | > 500 | retained activity | retained activity |  | not a significant inhibitory effect |  | >40 |  |  | 
9 | COc1ccc(-c2cc(C(F)(F)F)n3ncc(C(=O)Nc4sc5c(c4C(N)=O)CCCC5)c3n2)cc1 [Compound 26] |  | 68.9 ± 10 |  |  |  | 57.6 ± 4.1 | exerted an inhibitory effect |  | 7 |  |  | 
10 | CC(C)[C@H](NC(=O)c1ccccc1NC(=O)c1ccccc1)C(=O)N[C@H](CO)C(C)C [Compound 36, 2-Benzamido-N-((S)-1-(((S)-1-hydroxy-3-methylbutan-2-yl)amino)-3-methyl-1-oxobutan-2-yl)benzamide] |  | > 250 |  |  |  | 42.9 ± 8.3 |  | confirmed active | >192 | dose-dependent inhibition of the proteolytic cleavage | > 2 | still exerted an antiviral effect
11 | CC(C)[C@H](NC(=O)c1ccccc1NC(=O)c1ccc(O)cc1)C(=O)N[C@H](CO)C(C)C [Compound 35, N-((S)-1-(((S)-1-Hydroxy-3-methylbutan-2-yl)amino)-3-methyl-1-oxobutan-2-yl)-2-(4-hydroxybenzamido)benzamide] |  | > 250 |  |  |  | 19 ± 8.4 |  |  | >10 |  |  | 
12 | O=C(Nc1ccc2c(c1)OCO2)c1nnc(C(=O)N2CCCC(C(=O)NCc3ccccc3)C2)s1 (stereo not drawn) [Compound 5] | 10.4 ± 4.1 | 207 ± 14 | 100 ± 11.9 | retained activity | retained activity | 29 ± 3.7 | exerted an inhibitory effect | significantly reduced SARS-CoV-2 titers | 29 |  |  | 
13 | O=C(NC(Cc1ccccc1)C(=O)NCc1ccccn1)OCc1ccccc1 (stereo not drawn) [Compound 12] |  | 428 ± 11 |  |  |  |  | not a significant inhibitory effect |  | 21 |  |  | 
14 | O=C(NCc1ccc(F)cc1)C(=O)NCC(c1cccnc1)N1CCN(c2ccccc2)CC1 (stereo not drawn) [Compound 4] | 23.8 ± 9.9 | > 500 | 300 ± 18 | retained activity | retained activity |  | not a significant inhibitory effect |  | >24 |  |  | 
15 | CCc1cc(Br)cc2c(C(=O)N3CCOCC3)cc(-c3ccc(OC)cc3)nc12 [Compound 19] |  | 228 ± 69 |  |  |  |  | not a significant inhibitory effect |  | 32 |  |  | 
16 | CC(C)[C@H](NC(=O)c1ccccc1NC(=O)c1ccccn1)C(=O)N[C@H](CO)C(C)C [Compound 37, N-(2-(((S)-1-(((S)-1-Hydroxy-3-methylbutan-2-yl)amino)-3-methyl-1-oxobutan-2-yl)carbamoyl)phenyl)picolinamide] |  | > 250 |  |  |  | 41.3 ± 7.6 |  | confirmed active | >119 | dose-dependent inhibition of the proteolytic cleavage | > 2 | still exerted an antiviral effect
17 | NC(=O)c1c(NC(=O)c2cnn3c(C(F)(F)F)cc(-c4ccccc4)nc23)sc2c1CCCC2 [Compound 25] | > 25 | > 250 | > 250 |  | retained activity | 26.6 ± 7.4 | exerted an inhibitory effect | significantly reduced SARS-CoV-2 titers | >31 |  |  | 
18 | COc1ccc(C(=O)Nc2ccccc2C(=O)N[C@H](C(=O)Nc2ccccc2)C(C)C)cc1 [Compound 31, (S)-2-(4-Methoxybenzamido)-N-(3-methyl-1-oxo-1-(phenylamino)butan-2-yl)benzamide] |  | > 250 |  |  |  | 43.7 ± 9.2 |  |  | >5 |  | > 2 | 
